The results in this text go back to patent US11952349B2, “Anti-cancer nuclear hormone receptor-targeting compounds” (Nuvation Bio Inc., priority 2019, dated 2024).

The target of this assay is T1, AR in LNCaP cytosol (Homo sapiens, UniProt P10275, T878A).
T1 construct: AR in LNCaP cytosol was used; endogenous in cells; host or cells: LNCaP cells (cytosol)
T1 sequence (P10275 1-920 T878A): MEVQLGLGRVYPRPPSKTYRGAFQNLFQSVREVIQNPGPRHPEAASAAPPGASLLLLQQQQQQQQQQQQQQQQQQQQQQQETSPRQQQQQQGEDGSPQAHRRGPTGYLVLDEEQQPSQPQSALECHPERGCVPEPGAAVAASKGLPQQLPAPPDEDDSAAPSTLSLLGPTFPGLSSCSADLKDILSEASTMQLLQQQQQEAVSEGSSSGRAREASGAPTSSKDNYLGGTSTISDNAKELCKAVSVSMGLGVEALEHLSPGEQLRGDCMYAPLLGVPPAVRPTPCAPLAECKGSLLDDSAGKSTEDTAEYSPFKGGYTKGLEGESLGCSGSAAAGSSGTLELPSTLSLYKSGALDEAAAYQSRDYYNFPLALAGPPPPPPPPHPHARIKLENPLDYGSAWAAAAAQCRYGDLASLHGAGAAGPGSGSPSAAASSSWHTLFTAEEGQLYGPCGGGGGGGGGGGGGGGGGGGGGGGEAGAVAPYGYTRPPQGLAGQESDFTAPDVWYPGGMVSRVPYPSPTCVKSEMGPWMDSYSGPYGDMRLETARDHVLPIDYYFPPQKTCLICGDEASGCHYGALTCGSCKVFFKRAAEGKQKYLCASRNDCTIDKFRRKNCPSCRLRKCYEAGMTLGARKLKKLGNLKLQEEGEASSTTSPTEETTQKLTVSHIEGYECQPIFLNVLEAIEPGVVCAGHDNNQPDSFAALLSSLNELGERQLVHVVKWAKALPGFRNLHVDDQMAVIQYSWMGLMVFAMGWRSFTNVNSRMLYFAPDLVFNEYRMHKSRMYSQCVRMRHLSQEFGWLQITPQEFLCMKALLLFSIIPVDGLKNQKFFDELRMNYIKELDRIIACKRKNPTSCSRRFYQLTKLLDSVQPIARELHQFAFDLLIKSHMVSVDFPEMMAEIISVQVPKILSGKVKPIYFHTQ
Briefly: AR binding assay, 3H-methyltrienolone (Biological Example 1). Particulars: Table 6, in vitro NHR binding; Ki=IC50/(1+[L]/Kd), [L] 1 nM, Kd 0.332 nM. On the procedure: The following methods are for evaluating the in vitro biology properties of the test articles. • a. RBC HotSpot Poly(ADP-ribose) Polymerases 1 (PARP1) and Poly(ADP-ribose) Polymerases 2 (PARP2) Assays: The assay was conducted at Reaction Biology Corporation (RBC; Malvern, PA). The assay principle is radioisotope-based filter binding assay where incorporation of radioisotope-labeled NAD^+ into the substrate captured on filter is detected after washout free NAD^+. Data were analyzed using Excel and GraphPad Prism software for IC50 curve fits. Each assay was conducted with PJ34 as a positive control. […] After incubation for 2 hrs at room temperature, the reaction mixture was filtered and washed with 0.75% phosphoric acid for radioactivity detection. • ii. […] After incubation for 2 hrs at room temperature, the reaction mixture was filtered and washed with 0.75% phosphoric acid for radioactivity detection. • b. […] IC50 s were determined using 8 concentrations/compound. […] Radioactivity is counted using a TriCarb 2910 TR scintillation counter (PerkinElmer). […] The Ki values were further calculated using the equation below where [L] is the radioligand concentration (1 nM) used in this study. […]

pKi: −log10 of the molar value.

`Cn1ncnc1C1c2n[nH]c(=O)c3cc(F)cc(c23)N[C@@H]1c1ccc(NC(=O)CCCCCO[C@@H]2CC[C@H]3[C@@H]4CC[C@H]5CCCC[C@]5(C)[C@H]4CC[C@]23C)cc1` (stereo partly drawn) [Compound 1128, 6-((5R,8R,9S,10S,13S,14S,17R)-10,13-dimethylhexadecahydro-1H-cyclopenta[a]phenanthren-17-yloxy)-N-(4-((8S)-5-fluoro-9-(1-methyl-1H-1,2,4-triazol-5-yl)-3-oxo-3,7,8,9-tetrahydro-2H-pyrido[4,3,2-de]phthalazin-8-yl)phenyl)hexanamide] had a pKi of less than 5.13.
